Test results reported in patent US20050147959A1, “Tissue analogs for in vitro testing and method of use therefor” (priority 2002, published 2005).

Legend:
[1] = tested on: cartilage analogs (human nasal septal chondrocytes on microcarriers); test: De novo proteoglycan synthesis by 35S-sulfate incorporation in cartilage analogs cultured in spinner flasks; type: cell-based; conditions: for sulfate incorporation, cell-associated (non-secreted) fraction, compared to controls: Ibuprofen 140 μg/ml; for de novo proteoglycan synthesis compared to the control (FIG. 8): subsequent study with PPS5, 35S label during last 24 hours of culture
Experimental: A preliminary experiment was conducted to analyze the effect of agents such as growth factors (TGF-β1) and non-steroidal anti-inflammatory drugs (NSAIDS; Ibuprofen). Human chondrocytes from donors undergoing nasal septal defect surgery were isolated by enzymatic digestion. The cells were seeded onto microcarriers at approximately 4×10^3 cells/cm^2, and incubated in spinner flasks at 60 rpm and at 37° C. and 5% CO2 until the cells reach confluency at about 14 days. […] These aggregates are referred to here as “cartilage analogs”.
(§1) Equivalent aliquots of these analogs were transferred to six 25-ml spinner flasks. Aliquots (5 ml) of control medium (no additive), or medium containing human platelet TGF-β1 (10 ng/ml; Sigma Chemical Co., St. Louis, Mo.) or Ibuprofen (140 μg/ml; Sigma) were added to duplicate flasks. TGF-β1 is a growth factor known to stimulate proteoglycan synthesis in chondrocyte cultures and cartilage explant cultures, while Ibuprofen is an anti-inflammatory drug known to inhibit proteoglycan synthesis. […] The cultures were incubated for two days. 24 hours prior to terminating the cultures, 300 μCi of ^35S—Na2SO4 (NEN Life Science Products, Boston, Mass.) was added to each flask to measure incorporation into proteoglycans during the last 24 hours of culture.
Following termination of the cultures, cells were pelleted by centrifugation and proteoglycans were extracted from the supernatant medium and the cell fraction with 4 M guanidine HCl for 24 hours at 4° C. Guanidine HCl extracts were dialyzed extensively against deionized class I water using 6,000 Da cut-off dialysis tubing (The Spectrum Companies, Gardena, Calif.). Post-dialysis volumes were measured and triplicate 100 μl samples were counted in a LS-6500 Liquid Scintillation Counter (Beckman Instruments, Inc., Palo Alto, Calif.) using Cytoscint-ES Cocktail (ICN Research Products, Costa Mesa, Calif.). The total ^35SO4 incorporation was expressed as cpm per 10^6 cells. Another set of dialyzed samples were dried on a Speed-Vac (Savant, Inc., Farmingdale, N.Y.) and was then reconstituted in sample buffer consisting of 1% sodium dodecylsulfate, 30% sucrose and 0.025% brophenol blue. The samples were boiled for 5 min and then loaded on an 0.75% agarose gel in electrophoresis buffer. After electrophoresis, the gel was treated with Entensify (NEN Life Science Products), dried and autoradiographed at −70° C.

[2] = tested on: cartilage analogs (human nasal septal chondrocytes on microcarriers); test: Immunoperoxidase staining for proteoglycans in chondrocytes from cartilage analogs; type: cell-based; conditions: two days incubation; TGF-β1 10 ng/ml, Ibuprofen 140 μg/ml
Experimental: A preliminary experiment was conducted to analyze the effect of agents such as growth factors (TGF-β1) and non-steroidal anti-inflammatory drugs (NSAIDS; Ibuprofen). Human chondrocytes from donors undergoing nasal septal defect surgery were isolated by enzymatic digestion. The cells were seeded onto microcarriers at approximately 4×10^3 cells/cm^2, and incubated in spinner flasks at 60 rpm and at 37° C. and 5% CO2 until the cells reach confluency at about 14 days. At this point, the chondrocytes produce extracellular matrix-like products consisting of type II collagen, high-molecular-weight proteoglycans and aggrecan. The constructs also start to form microaggregates. These aggregates are referred to here as “cartilage analogs”.
as §1, with “24 hours prior to terminating the cultures, 300 μCi of ^35S—Na2SO4 (NEN Life Science Products, Boston, Mass.) was added to each flask to measure incorporation into proteoglycans during the last 24 hours of culture.” left out

[3] = preliminary experiment, two days, 35S label during last 24 hours, TGF-β1 10 ng/ml

Molecule	sulfate incorporation, media-associated (secreted) fraction, compared to controls [1, 3]	sulfate incorporation, cell-associated (non-secreted) fraction, compared to controls [1, 3]	de novo proteoglycan synthesis compared to the control (FIG. 8) [1]	immunostaining for proteoglycans compared to control cells [2]
TGF-β1: human platelet TGF-β1, a growth factor known to stimulate proteoglycan synthesis in chondrocyte cultures	higher sulfate incorporation	higher sulfate incorporation	enhanced protoglycan synthesis	More intense immunostaining
CC(C)Cc1ccc(C(C)C(=O)O)cc1 (stereo not shown) [Ibuprofen, reference compound]		decreased the cell-associated sulfate incorporation	decreased proteoglycan synthesis	more faint immunostaining
